# From US10251852B2, “Composition and methods for treatment of lung disorders characterized by cholesterol dysregulation” (priority 2016, dated 2019)
# Assays:
# [1] = system: alveolar macrophages from PAP patients; test: Ex vivo human PPARγ & LXR stimulation, mRNA by qRT-PCR; assay type: cell-based
# Method: Bronchoalveolar lavage and alveolar macrophage collection in human participants. This study was conducted with the approval of the Cincinnati Children's Hospital Medical Center institutional review board and all participants or their legal guardians gave written informed consent. Human BAL fluid and alveolar macrophages were obtained from BAL using flexible bronchoscopy or from discarded material of PAP patients undergoing therapeutic whole lung lavage. After the fluid was centrifuged at 283 g for 10 minutes, the cellular pellet was re-suspended in the culture medium. Human alveolar macrophages were isolated by adherence to tissue culture plastic. Extracellular debris was removed by gentle washing with PBS.
# (§1) RNA isolation and gene expression analysis. Total RNA was isolated using Trizol (Life Technologies) and was converted to cDNA using the Invitrogen Superscript III first strand synthesis kit (Life Technologies) according to the manufacturer's protocol. Standard quantitative RT-PCR (qRT-PCR) was performed as previously described 10 on an Applied Biosystems 7300 Real-Time PCR System (Life Technologies) to measure transcript abundance using TaqMan® oligonucleotide primer sets (all from Life Technologies). Expression of target genes was normalized to the expression of 18s RNA.
# Ex vivo human PPARγ & LXR stimulation studies. After purifying alveolar macrophages, fresh media was added to the adherent alveolar macrophages containing human M-CSF (R&D) (25ng/ml) only or M-CSF plus Pioglitazone (Sigma) (10 μM) or T0901317 (Tocris) (1 μM) for 24 hrs. qRT-PCR was performed as described above.
# [2] = system: BMD macrophages from PAP mice (Csf2−/−); test: In vitro mouse PPARγ & LXR stimulation, gene expression by qRT-PCR; assay type: cell-based; conditions: T0901317 1 μm
# Method: Tissue macrophage differentiation and culture. All cells were maintained in the culture medium of Dulbecco's modified eagle's medium (DMEM) (Life Technologies) plus 10% FBS, 50 U ml-1 penicillin, and 50 μg ml-1 streptomycin. Bone marrow cells were obtained from 6-8-week-old mice by flushing the tibias and femurs with the culture media described above.
# Mononuclear cells were isolated by centrifugation over a Ficoll-Paque (GE Healthcare Life Sciences) gradient at room temperature for 30 minutes. The buffy coat was washed in PBS and the cellular pellet re-suspended in the culture medium with M-CSF (R&D Systems) (5 ng/ml) plus or minus GM-CSF (R&D Systems) as dictated per experimental requirements. Cells were cultured in a 10 cm dish overnight at 37° C. and the next day non-adherent cells were recovered and transferred to a new dish and cultured under the same conditions for an additional 24 hrs. At this stage non-adherent cells were discarded and adherent cells cultured for an additional five days to allow differentiation of bone marrow derived (BMD) macrophages. Peritoneal macrophages were isolated from the peritoneal without chemical solicitation by washing with 8 ml of PBS plus 0.5 mM EDTA. WT peritoneal macrophages were cultured in vitro in culture medium with M-CSF (5 ng/ml) and GM-CSF […], and Csf2^−/− peritoneal macrophages were cultured in culture medium with M-CSF alone. […]
# [3] = system: BMD macrophages from PAP mice (Csf2−/−); test: In vitro surfactant challenge assay after PPARγ/LXR stimulation (esterified cholesterol accumulation); assay type: cell-based, mouse
# Method: (§2) In vitro surfactant challenge assay. BMD macrophages or peritoneal macrophages were seeded at 4×10^5 cells per well of a 12 well tissue culture plate and allowed to adhere with fresh media and cytokines overnight. Cells were then challenged for 24 hrs with pulmonary surfactant isolated from a hereditary PAP patient (PAP-S). After the challenge cells were gently washed with PBS to remove exogenous PAP-S and cellular lipids were then extracted and analyzed by the amplex red cholesterol assay.
# In vitro mouse PPARγ & LXR stimulation Studies. BMD macrophages were prepared as previously described in the presence of M-CSF (10 ng/ml). On the 7th day macrophages were stimulated for 24 hrs with M-CSF (10 ng/ml), GM-CSF (10 ng/ml), Pioglitazone (10 μm) or T0901317 (1 μm from Tocris). Macrophages were then used for an in vitro surfactant challenge assay or gene expression analysis by qRT-PCR as described above.
# Csf2rb−/− mice [4] = test: In vivo LXR stimulation study (oral T0901317 in PAP mice); parameters: species or system mouse; conditions: oral gavage 10 mg/kg/day, 7 days
# Method: Bronchoalveolar lavage and alveolar macrophage collection in mice.
# RNA isolation and gene expression analysis.
# In vivo LXR Stimulation Studies. Mice were administered T0901317 by oral gavage once daily for 7 days at a dose of 10 mg/kg/BW/Day using propylene glycol and tween 80 as a vehicle. On the 7th day alveolar macrophages were collected by bronchoalveolar lavage. Following brief adherence to tissue culture plastic to remove BAL debris, alveolar macrophages were then used for RNA isolation and gene expression analysis by qRT-PCR as described above
# Csf2rb−/− mice [5] = test: In vivo PPARγ stimulation study (oral pioglitazone in PAP mice)
# Excerpt: Bronchoalveolar lavage and alveolar macrophage collection in mice. GM-CSF (CSF2) knockout (Csf2^−/−) mice5 and Csf2rb gene-deficient (Csf2rb^−/−)14 were reported previously (referred to mouse PAP). C57B1/6 mice (referred to as wild type or WT mice) were purchased from Charles River. All mice were bred, housed, and studied in the Cincinnati Children's Research Foundation Vivarium using protocols approved by the Institutional Animal Care and Use Committee. Epithelial lining fluid and non-adherent cells were collected from indicated mice by bronchoalveolar lavage (BAL) using five lml aliquots of PBS plus 0.5 mM EDTA4. The 1 ml aliquots were pooled and the recovered volumes recorded. The supernatant was removed and the cellular pellets were re-suspended in the culture media for isolation of alveolar macrophages by adherence to tissue culture plastic.
# Cholesterol levels. Total and free cholesterol levels were measured by the amplex red cholesterol assay (Life Technologies) per the manufacturer's protocol. Esterified cholesterol was then calculated by subtracting free cholesterol from the total value.
# Turbidity. The turbidity of the fluid was measured as previously described^4,55 Briefly, 250 uls of the BAL were diluted into 750 uls of PBS and the optical density measured at a wavelength of 600 nm and multiplied by the dilution factor.
# as §1
# In vivo PPARγ stimulation studies. Pioglitazone was incorporated into standard rodent chow at a dose expected to deliver 20 mg/kg BW/Day. BAL turbidity and alveolar macrophage gene expressions were measured as described above. GM-CSF levels and total cholesterol levels in the BAL were measured in the supernatant of fluid after centrifuge at 283 g for 10 minutes at 4° C. by enzyme-linked immunosorbent assay (ELISA) (R&D systems) and Amplex Red Cholesterol assay respectively as described above.
# [6] = system: patients with insulin resistance; conditions: literature ref. 53; cited from earlier work
# Csf2−/− BMD macrophages = test: GM-CSF plasticity studies (withdrawal, multi-day stimulation, dose response) with PAP-S challenge; assay type: cell-based, mouse; conditions: for reduction in exposure-related cholesterol ester accumulation: addition of GM-CSF (10 ng/ml) to macrophages cultured without it; for increase in exposure-related cholesterol ester accumulation: withdrawal of GM-CSF
# Method: as §2
# GM-CSF withdrawal. Csf2^−/− BMD macrophages were differentiated and maintained in media containing M-CSF and GM-CSF. After 7 days of differentiation cells were split into 12well tissue culture plates and allowed to adhere overnight in GM-CSF containing media. The following day the media was changed to M-CSF only and cells were challenged with PAP-S for 24hrs immediately or 24, 48, and 72 hours after GM-CSF withdrawal. Cellular lipids were extracted, normalized to total protein, and analyzed. Csf2^−/− BMD macrophages were used to ensure elimination of any potential autologous GM-CSF expression-related stimulation.
# Multi-Day GM-CSF stimulation. Csf2^−/− BMD macrophages were generated in media containing M-CSF. On the 7th day cells were stimulated for 0, 24, 48, or 72 hrs with 10 ng/ml of GM-CSF before 24 hr surfactant challenge with PAP-S. Cellular lipids were extracted, normalized to total protein, and analyzed.
# GM-CSF dose response. Csf2^−/− BMD macrophages were generated in media containing M-CSF. On the 7th day cells were stimulated by a dose response of GM-CSF (0, 0.1,1,10, and 100 ng/ml) for 24 hrs before surfactant challenge with PAP-S. Cellular lipids were extracted, normalized to total protein, and analyzed.
# [7] = pioglitazone 10 μM, 24 hrs, compared to untreated controls (FIG. 5A-5B)
# [8] = oral in food, 20 mg/kg/day, six weeks, vs untreated age-matched controls (FIG. 5F-5G)
compound,measurement,setting,value
"O=S(=O)(c1ccccc1)N(CC(F)(F)F)c1ccc(C(O)(C(F)(F)F)C(F)(F)F)cc1 [T0901317, N-(2,2,2-trifluoroethyl)-N-[4-[2,2,2-trifluoro-1-hydroxy-1-(trifluoromethyl)ethyl]phenyl]-benzenesulfonamide]",ABCG1 mRNA,"[1]; T0901317 1 μM, 24 hrs (FIG. 8A)",increase
same,ABCA1 mRNA,"[1]; T0901317 1 μM, 24 hrs (FIG. 8B)",increase
same,Abcg1 mRNA level,[2]; 24 hrs (FIG. 8C),increased
same,Abca1 mRNA level,[2]; 24 hrs (FIG. 8D),increased
same,cholesterol ester accumulation following exposure to PAP-surfactant,"[3]; T0901317 1 μm 24 hrs, then PAP-S 24 hrs (FIG. 8E)",reduced
same,Abca1 mRNA in alveolar macrophages,Csf2rb−/− mice [4]; vs untreated age-matched controls (FIG. 8F),significantly increased
same,Abcg1 mRNA in alveolar macrophages,Csf2rb−/− mice [4]; vs untreated age-matched controls (FIG. 8G),significantly increased
"CCc1ccc(CCOc2ccc(CC3SC(=O)NC3=O)cc2)nc1 (stereo not shown) [pioglitazone, Pioglitazone]",ABCA1 mRNA,[1]; [7],did not alter
same,ABCG1 mRNA,[1]; [7],markedly increased
same,cholesterol ester accumulation following exposure to PAP-surfactant,"[3]; pioglitazone 10 μm 24 hrs, then PAP-S 24 hrs (FIG. 5E)",reduced
same,Abca1 mRNA in alveolar macrophages,Csf2rb−/− mice [5]; [8],significantly increased
same,Abcg1 mRNA in alveolar macrophages,Csf2rb−/− mice [5]; [8],significantly increased
same,BAL turbidity,"Csf2rb−/− mice [5]; oral in food, 20 mg/kg/day, six weeks, vs untreated age-matched controls (FIG. 5H)",significantly reduced
same,BAL cholesterol level,"Csf2rb−/− mice [5]; oral in food, 20 mg/kg/day, six weeks, vs untreated age-matched controls (FIG. 5I)",significantly reduced
same,adverse effects,Csf2rb−/− mice [5]; oral pioglitazone in Csf2rb−/− mice (not shown),no apparent adverse effects
same,severity of PAP lung disease,Csf2rb−/− mice [5]; pioglitazone therapy of GM-CSF deficient mice (summary statement),reduced the severity
same,risk of stroke or myocardial infarction,[6],reduce the risk
GM-CSF: granulocyte/macrophage-colony stimulating factor (R&D Systems),cholesterol clearance capacity of macrophages,"Csf2−/− BMD macrophages; GM-CSF 0, 0.1, 1, 10, 100 ng/ml for 24 hrs before PAP-S challenge (FIG. 3N)",increased the cholesterol clearance capacity of macrophages in dose-dependent fashion
same,reduction in exposure-related cholesterol ester accumulation,Csf2−/− BMD macrophages; by 24 hours (FIG. 3M),27%
same,reduction in exposure-related cholesterol ester accumulation,Csf2−/− BMD macrophages; by 72 hours (FIG. 3M),49%
same,increase in exposure-related cholesterol ester accumulation,Csf2−/− BMD macrophages; by 24 hours (FIG. 3L),86%
same,increase in exposure-related cholesterol ester accumulation,Csf2−/− BMD macrophages; by 72 hours (FIG. 3L),309%
